# Measured values taken from paper PMC5681660, “Reduced hepatitis B and D viral entry using clinically applied drugs as novel inhibitors of the bile acid transporter NTCP” (Scientific Reports, 2017).
# Structures can show the parent of a compound that is named as a salt.
# What was measured:
# human NTCP [1] = target: T1, human NTCP (Homo sapiens, UniProt Q14973); test: Screening taurocholate uptake assay (96-well, [14C]taurocholate, 10 µM drug); details: for B-score functional assay: 10 µM drug
# T1 sequence (Q14973 1-349): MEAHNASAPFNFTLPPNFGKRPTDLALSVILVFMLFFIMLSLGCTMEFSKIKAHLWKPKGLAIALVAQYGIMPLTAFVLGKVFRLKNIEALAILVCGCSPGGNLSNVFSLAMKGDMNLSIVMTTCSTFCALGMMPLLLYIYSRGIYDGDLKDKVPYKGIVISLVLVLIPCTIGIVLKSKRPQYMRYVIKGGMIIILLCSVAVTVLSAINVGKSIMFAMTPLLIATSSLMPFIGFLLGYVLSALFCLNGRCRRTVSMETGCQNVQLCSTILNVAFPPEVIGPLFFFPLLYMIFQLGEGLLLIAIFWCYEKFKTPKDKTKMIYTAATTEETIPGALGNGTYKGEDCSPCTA
# human NTCP [2] = target: T1, human NTCP; test: Screening fluorescent competitive Myrcludex B-FITC binding assay (96-well, 10 µM drug); details: 10 µM drug
# [3] = Prestwick library screen, taurocholate uptake
# [4] = ranking score beside the functional and binding assay B-scores of the screen
# [5] = Prestwick library screen, Myrcludex B-FITC binding
# [6] = combined ranking from functional and binding screening assays
# [7] = screen, Myrcludex B-FITC binding
# [8] = Prestwick library screen, B-score of taurocholate uptake
# [9] = combined ranking from functional and binding assay B-scores
# [10] = Prestwick library screen, B-score of Myrcludex B-FITC binding
compound,measurement,setting,value
CC1CNc2c(cccc2S(=O)(=O)N[C@@H](CCCNC(=N)N)C(=O)N2CC[C@@H](C)C[C@@H]2C(=O)O)C1 (some centres unmarked) [Argatroban],B-score functional assay,human NTCP [1]; [3],-0.168
same,Ranking score,human NTCP [1]; [4],668.874
same,B-score binding assay,human NTCP [2]; [5],0.437
CC(=O)OCC(=O)[C@@]1(O)CC[C@H]2[C@@H]3CCC4=CC(=O)CC[C@]4(C)[C@H]3[C@@H](O)C[C@@]21C [Cortisol acetate],B-score functional assay,human NTCP [1]; [3],0.009
same,Ranking score,human NTCP [1]; [4],752.137
same,B-score binding assay,human NTCP [2]; [5],0.369
CC(=O)[C@H]1CC[C@H]2[C@@H]3CC=C4C[C@@H](O)CC[C@]4(C)[C@H]3CC[C@]12C [Pregnenolone],Ranking score,human NTCP [1]; [6],297.104
same,B-score functional assay,"human NTCP [1]; screen, taurocholate uptake",-2.394
same,B-score binding assay,human NTCP [2]; [7],0.35
CCC(=O)O[C@@H](O[P@](=O)(CCCCc1ccccc1)CC(=O)N1C[C@H](C2CCCCC2)C[C@H]1C(=O)O)C(C)C [Fosinopril],B-score functional assay,human NTCP [1]; [3],3.318
same,Ranking score,human NTCP [1]; [4],655.924
same,B-score binding assay,human NTCP [2]; [5],-0.621
Tyloxapol,B-score functional assay,"human NTCP [1]; screen, taurocholate uptake",-1.163
same,B-score binding assay,human NTCP [2]; [7],0.59
C#C[C@]1(O)CC[C@H]2[C@@H]3CCC4=Cc5oncc5C[C@]4(C)[C@H]3CC[C@@]21C [Danazol],Ranking score,human NTCP [1]; [6],407.041
same,B-score functional assay,"human NTCP [1]; screen, taurocholate uptake",-0.499
same,B-score binding assay,human NTCP [2]; [7],-0.305
O=c1[nH]c(=O)n([C@H]2C[C@H](O)[C@@H](CO)O2)cc1F [Floxuridine],B-score functional assay,human NTCP [1]; [3],0.659
same,Ranking score,human NTCP [1]; [4],772.114
same,B-score binding assay,human NTCP [2]; [5],-0.009
CC(C)C[C@H](CN)CC(=O)O [Pregabalin],B-score functional assay,human NTCP [1]; [8],1.204
same,Ranking score,human NTCP [1]; [9],863.391
same,B-score binding assay,human NTCP [2]; [10],0.027
CN1CCC(=C2c3ccccc3CCc3sccc32)CC1.O=C(O)CC(O)C(=O)O [Pizotifen malate],B-score functional assay,human NTCP [1]; [3],0.156
same,Ranking score,human NTCP [1]; [4],745.131
same,B-score binding assay,human NTCP [2]; [5],0.057
C[C@]12C=CC(=O)C=C1CC[C@@H]1[C@@H]2C(=O)C[C@@]2(C)[C@H]1CC[C@]2(O)C(=O)CO [Prednisone],Ranking score,human NTCP [1]; [6],427.034
same,B-score functional assay,"human NTCP [1]; screen, taurocholate uptake",-1.367
same,B-score binding assay,human NTCP [2]; [7],0.54
COC(=O)C1=C(C#N)NC(C)=C(C(=O)OC(C)C)C1c1cccc([N+](=O)[O-])c1 (centres unmarked) [Nilvadipine],Ranking score,human NTCP [1]; [6],384.686
same,B-score functional assay,"human NTCP [1]; screen, taurocholate uptake",-2.135
same,B-score binding assay,human NTCP [2]; [7],2.397
S=C(NC1CCCCC1)N1CCC(c2cnc[nH]2)CC1 [Thioperamide maleate],Ranking score,human NTCP [1]; [6],451.504
same,B-score functional assay,"human NTCP [1]; screen, taurocholate uptake",-0.893
same,B-score binding assay,human NTCP [2]; [7],0.108
CC(N/C(=N\C#N)Nc1ccncc1)C(C)(C)C (centres unmarked) [Pinacidil],Ranking score,human NTCP [1]; [6],332.839
same,B-score functional assay,"human NTCP [1]; screen, taurocholate uptake",-0.832
same,B-score binding assay,human NTCP [2]; [7],-0.477
CCSc1ccc2c(c1)N(CCCN1CCN(C)CC1)c1ccccc1S2.O=C(O)CC(O)C(=O)O.O=C(O)CC(O)C(=O)O [Thiethylperazine dimalate],B-score functional assay,human NTCP [1]; [8],0.623
same,Ranking score,human NTCP [1]; [9],1093.79
same,B-score binding assay,human NTCP [2]; [10],3.252
COc1ccc(CC2c3cc(OC)c(OC)cc3CC[N+]2(C)CCC(=O)OCCCCCOC(=O)CC[N+]2(C)CCc3cc(OC)c(OC)cc3C2Cc2ccc(OC)c(OC)c2)cc1OC (centres unmarked) [Atracurium besylate],B-score functional assay,human NTCP [1]; [8],2.141
same,Ranking score,human NTCP [1]; [9],978.724
same,B-score binding assay,human NTCP [2]; [10],0.189
CC(C)(Sc1cc(C(C)(C)C)c(O)c(C(C)(C)C)c1)Sc1cc(C(C)(C)C)c(O)c(C(C)(C)C)c1 [Probucol],B-score functional assay,human NTCP [1]; [8],0.089
same,Ranking score,human NTCP [1]; [9],969.367
same,B-score binding assay,human NTCP [2]; [10],3.305
CCOC(=O)C1=C[C@]2(CC)CCCN3CCc4c(n1c1ccccc41)[C@@H]32 [Vinpocetine],Ranking score,human NTCP [1]; [6],428.448
same,B-score functional assay,"human NTCP [1]; screen, taurocholate uptake",2.672
same,B-score binding assay,human NTCP [2]; [7],-1.57
CCC[C@H](N[C@@H](C)C(=O)N1[C@H](C(=O)O)C[C@@H]2CCCC[C@@H]21)C(=O)OCC [Perindopril],Ranking score,human NTCP [1]; [6],319.862
same,B-score functional assay,"human NTCP [1]; screen, taurocholate uptake",-2.428
same,B-score binding assay,human NTCP [2]; [7],1.021
C[C@]12CCC(=O)C=C1CC[C@@H]1[C@@H]2C(=O)C[C@@]2(C)[C@H]1CC[C@]2(O)C(=O)CO [Cortisone],Ranking score,human NTCP [1]; [6],405.336
same,B-score functional assay,"human NTCP [1]; screen, taurocholate uptake",-0.212
same,B-score binding assay,human NTCP [2]; [7],-0.62
Nc1nc(/C(=C/CC(=O)O)C(=O)N[C@@H]2C(=O)N3C(C(=O)O)=CCS[C@H]23)cs1 [Ceftibuten],B-score functional assay,human NTCP [1]; [8],0.671
same,Ranking score,human NTCP [1]; [9],1026.13
same,B-score binding assay,human NTCP [2]; [10],1.253
CCCNCC(O)COc1ccccc1C(=O)CCc1ccccc1 (centres unmarked) [Propafenone hydrochloride],B-score functional assay,human NTCP [1]; [3],-0.211
same,Ranking score,human NTCP [1]; [4],771.984
same,B-score binding assay,human NTCP [2]; [5],2.716
CCN1C(=O)NC(c2ccccc2)C1=O (centres unmarked) [Ethotoin],B-score functional assay,human NTCP [1]; [8],3.216
same,Ranking score,human NTCP [1]; [9],1133.18
same,B-score binding assay,human NTCP [2]; [10],0.936
